Patent US7279576B2 (Deciphera Pharmaceuticals, LLC, priority 2002, dated 2007)

Target: T1, nonphosphorylated Abl kinase (Homo sapiens, UniProt P00519)
T1 construct: purchased deCode Abl-2
Experiment: Abl kinase assay (continuous spectrophotometric, pyruvate kinase/lactate dehydrogenase coupled)
Type: biochemical
Details: for inhibition at 10 µM: read-out: % Inhi @ 10 uM
Procedure: A continuous spectrophotometric kinase assay is used, wherein the production of adenosine diphosphate is coupled to the oxidation of NADH and measured as a reduction in absorbance at 340 nm. For details see: Barker, S. C. et al, Biochemistry (1995) 34:14843; and Schindler, T. et al, Science (2000) 289:1938.
The reaction mixture (200 μl) contained Abl kinase (3.7 nM. Abl-2 from deCode), peptide substrate ([…], 0.5 mM), ATP (0.5 mM), MgCl2 (5 mM), pyruvate kinase (16 units), lactate dehydrogenase (26 units), phosphoenol pyruvate (1 mM), and NADH (0.28 mM) in 100 mM Tris buffer, pH 7.5. The reaction was initiated by adding ATP. The absorption at 340 nm was monitored continuously for 3 to 4 hours at 30° C. on Polarstar Optima plate reader (BMG). Under these conditions, a turn over number (kcat) of 1.4 s^−1 was obtained for the preparation of Abl kinase, which is similar to that (1.7 s^−1) reported for the nonphosphorylated enzyme (Brasher and Van Etten, JBC (2000) 275, 35631-35637). No autophosphorylation of Abl was observed under these conditions since the rate is constant throughout the entire reaction time and presumably because the concentration of the enzyme used is below the critical level (˜10 nM) needed for the autophosphorylation (Brasher and Van Etten, JBC (2000) 275, 35631-35637).
Percentage of inhibition in the presence of an inhibitor was obtained by comparison of reaction rate (or slope) with that of a control. IC50 value was calculated from a series of % inhibition values determined at a range of concentrations of the inhibitor using Prism.

T1 sequence (P00519 whole entry): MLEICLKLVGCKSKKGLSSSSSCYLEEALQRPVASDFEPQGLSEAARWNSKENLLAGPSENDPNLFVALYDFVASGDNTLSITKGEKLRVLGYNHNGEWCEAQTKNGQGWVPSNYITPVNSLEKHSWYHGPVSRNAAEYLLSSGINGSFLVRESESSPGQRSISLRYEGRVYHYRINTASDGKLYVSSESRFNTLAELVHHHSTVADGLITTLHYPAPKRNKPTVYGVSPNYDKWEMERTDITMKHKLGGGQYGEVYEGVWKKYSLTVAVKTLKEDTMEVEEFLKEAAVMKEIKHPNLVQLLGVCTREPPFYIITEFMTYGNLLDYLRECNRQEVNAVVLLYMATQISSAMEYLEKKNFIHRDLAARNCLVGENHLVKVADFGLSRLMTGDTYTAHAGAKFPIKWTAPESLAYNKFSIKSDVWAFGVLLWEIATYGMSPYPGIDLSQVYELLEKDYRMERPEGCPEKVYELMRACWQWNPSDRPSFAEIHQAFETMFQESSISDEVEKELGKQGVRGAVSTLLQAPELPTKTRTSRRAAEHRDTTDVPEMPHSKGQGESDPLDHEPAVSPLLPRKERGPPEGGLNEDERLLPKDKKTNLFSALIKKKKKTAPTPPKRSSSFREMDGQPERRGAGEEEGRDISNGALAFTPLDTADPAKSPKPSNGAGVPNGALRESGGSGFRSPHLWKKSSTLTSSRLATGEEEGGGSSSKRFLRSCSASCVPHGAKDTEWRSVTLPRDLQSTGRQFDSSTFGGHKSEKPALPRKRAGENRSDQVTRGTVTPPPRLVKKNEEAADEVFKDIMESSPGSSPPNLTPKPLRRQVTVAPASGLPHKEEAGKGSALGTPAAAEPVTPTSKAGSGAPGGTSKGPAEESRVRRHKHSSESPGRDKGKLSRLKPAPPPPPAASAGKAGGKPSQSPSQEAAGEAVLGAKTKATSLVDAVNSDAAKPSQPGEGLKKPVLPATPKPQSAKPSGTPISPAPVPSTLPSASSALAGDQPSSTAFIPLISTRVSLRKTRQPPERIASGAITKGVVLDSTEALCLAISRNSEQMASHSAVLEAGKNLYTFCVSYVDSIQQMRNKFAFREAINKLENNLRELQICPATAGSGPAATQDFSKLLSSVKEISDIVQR

Structure (SMILES)	IC50	inhibition at 10 µM
Cc1ccc(NC(=O)c2ccc(C(=O)N3C(=O)OC[C@@H]3c3ccccc3)cc2)cc1Nc1nccc(-c2cccnc2)n1 [Example 19, L-4-(2-oxo-4-phenyl-oxazolidine-3-carbonyl)-N-[4-methyl-3-(4-pyridin-3-yl-pyrimidin-2-ylamino)-phenyl]benzamide]	4 µM	75%
Cc1ccc(NC(=O)c2ccc(CN3CC(=O)NS3(=O)=O)cc2)cc1Nc1nccc(-c2cccnc2)n1 [Example 10]	–	16%
Cc1ccc(NC(=O)c2ccc(Cn3sc(=O)n(-c4ccccc4)c3=O)cc2)cc1Nc1nccc(-c2ccccc2)n1 [Example 9, N-(3-(4-phenylpyrimidin-2-ylamino)-4-methylphenyl)-4-((3,5-dioxo-4-phenyl-1,2,4-thiadiazolidin-2-yl)methyl)benzamide]	–	42%
Cc1ccc(NC(=O)c2ccc(CNS(=O)(=O)NC(=O)N3CCCC3)cc2)cc1Nc1nccc(-c2ccccc2)n1 [Example 1]	–	10%
Cc1ccc(NC(=O)c2ccc(CN3CC(=O)N(C)C3=O)cc2)cc1Nc1nccc(-c2ccccc2)n1 [Example 6, N-(3-(4-phenylpyrimidin-2-ylamino)-4-methylphenyl)-4-((3-methyl-2,4-dioxoimidazolidin-1-yl)methyl)benzamide]	–	13%
Cc1ccc(NC(=O)c2ccc(CN3C(=O)CNS3(=O)=O)cc2)cc1Nc1nccc(-c2ccccc2)n1 [Example 12, N-[4-Methyl-3-(4-phenyl-pyrimidin-2-ylamino)-phenyl]-4-(1,1,3-trioxo-[1,2,5]thiadiazolidin-2-ylmethyl)-benzamide]	–	52%
CNC(=O)CN(CC(=O)NC)C(=O)c1ccc(C(=O)Nc2ccc(C)c(Nc3ncccn3)c2)cc1 [Example 7, N^1,N^1-bis((methylcarbamoyl)methyl)-N^4-(4-methyl-3-(pyrimidin-2-ylamino)phenyl)terephthalamide]	–	9%
Cc1ccc(NC(=O)c2ccc(C(=O)N3C(=O)OC[C@H]3c3ccccc3)cc2)cc1Nc1nccc(-c2cccnc2)n1 [Example 18, D-4-(2-oxo-4-phenyl-oxazolidine-3-carbonyl)-N-[4-methyl-3-(4-pyridin-3-yl-pyrimidin-2-ylamino)-phenyl]benzamide]	3 µM	70%
Cc1ccc(NC(=O)c2ccc(Cn3c(=O)[nH]n(C)c3=O)cc2)cc1Nc1ncccn1 [Example 21, 4-((1-methyl-3,5-dioxo-1,2,4-triazolidin-4-yl)methyl)-N-(4-methyl-3-(pyrimidin-2-ylamino)phenyl)benzamide]	–	12%
Cc1ccc(NC(=O)c2ccc(CNS(=O)(=O)NC(=O)N3CCCC3)cc2)cc1Nc1ncccn1 [Example 2]	–	9%
Cc1ccc(NC(=O)c2ccc(CN3CC(=O)NS3(=O)=O)cc2)cc1Nc1nccc(-c2ccccc2)n1 [Example 23]	–	10%
Cc1ccc(NC(=O)c2ccc(CNC(=O)NS(=O)(=O)N3CCCC3)cc2)cc1Nc1nccc(-c2ccccc2)n1 [Example 3]	–	15%
Cc1ccc(NC(=O)c2ccc(CNC(=O)NS(=O)(=O)N3CCCC3)cc2)cc1Nc1ncccn1 [Example 4]	–	24%
Cc1ccc(NC(=O)c2ccc(CN3CC(=O)N(C)C3=O)cc2)cc1Nc1ncccn1 [Example 5, 4-((3-methyl-2,4-dioxoimidazolidin-1-yl)methyl)-N-(4-methyl-3-(pyrimidin-2-ylamino)phenyl)benzamide]	–	9%
CNC(=O)CN(CC(=O)NC)C(=O)c1ccc(C(=O)Nc2ccc(C)c(Nc3nccc(-c4ccccc4)n3)c2)cc1 [Example 8, N^1,N^1-bis((methylcarbamoyl)methyl)-N^4-(3-(4-phenylpyrimidin-2-ylamino)4-methylphenyl)terephthalamide]	–	20%
Cc1ccc(NC(=O)c2ccc(CN3CCS(=O)(=O)CC3)cc2)cc1Nc1nccc(N2CCOCC2)n1 [Example 15, 4-(((4,4-dioxothiomorpholinomethyl)1)methyl)-N-(4-methyl-3-(4-morpholinopyrimidin-2-ylamino)phenyl)benzamide]	–	7%
Cc1ccc(NC(=O)c2ccc(CN3CCS(=O)(=O)CC3)cc2)cc1Nc1ncccn1 [Example 13, 4-(((4,4-dioxothiomorpholinomethyl)1)methyl)-N-(4-methyl-3-(pyrimidin-2-ylamino)phenyl)benzamide]	–	31%
Cc1ccc(NC(=O)c2ccc(C(=O)N3C(=O)OC[C@H]3c3ccccc3)cc2)cc1Nc1nccc(-c2ccccc2)n1 [Example 16, D-4-(2-oxo-4-phenyl-oxazolidine-3-carbonyl)-N-(4-methyl-3-(4-phenylpyrimidin-2-ylamino)phenyl)benzamide]	–	9%
Cc1ccc(NC(=O)c2ccc(C(=O)N3C(=O)OC[C@@H]3c3ccccc3)cc2)cc1Nc1nccc(-c2ccccc2)n1 [Example 17, L-4-(2-oxo-4-phenyl-oxazolidine-3-carbonyl)-N-(4-methyl-3-(4-phenylpyrimidin-2-ylamino)phenyl)benzamide]	–	18%
